One may read the EC50 as the concentration needed to bring the measured effect to its halfway point. Low readings indicate a more potent agent, high ones a less potent agent. In general, IC25 refers to the concentration at which the effect reaches the 25% level. For orientation: IC50 means the concentration at which inhibition is half-maximal.

This is an account of results in paper PMC3229538, “Inhibition of G Protein-Activated Inwardly Rectifying K^+ Channels by Different Classes of Antidepressants” (PLoS ONE, 2011).

Data set [1] deals with intrinsic oocyte channels. In words: Current responses in uninjected Xenopus oocytes. Type of data set: cell-based, Xenopus laevis. The procedure:
Louis, MO, USA). […] Microelectrodes were filled with 3 M KCl. […] For the analysis of concentration-response relationships, the data were fitted to a standard logistic equation [51] using KaleidaGraph (Synergy Software, Reading, PA, USA). […] The data are expressed as mean ± SEM, and n is the number of oocytes tested. The statistical analysis of differences between groups was performed using paired t-test, one-way analysis of variance (ANOVA), or two-way ANOVA followed by the Tukey-Kramer post hoc test. Values of P<0.05 were considered statistically significant.

Data set [2] deals with T1, GIRK1/2 channels activated by GTPγS (Mus musculus, UniProt P48542+P63250).
T1 construct: expressed in transfected cells; host or cells: Xenopus laevis oocytes injected with in vitro transcribed mRNA
T1 sequence (P63250 1-501): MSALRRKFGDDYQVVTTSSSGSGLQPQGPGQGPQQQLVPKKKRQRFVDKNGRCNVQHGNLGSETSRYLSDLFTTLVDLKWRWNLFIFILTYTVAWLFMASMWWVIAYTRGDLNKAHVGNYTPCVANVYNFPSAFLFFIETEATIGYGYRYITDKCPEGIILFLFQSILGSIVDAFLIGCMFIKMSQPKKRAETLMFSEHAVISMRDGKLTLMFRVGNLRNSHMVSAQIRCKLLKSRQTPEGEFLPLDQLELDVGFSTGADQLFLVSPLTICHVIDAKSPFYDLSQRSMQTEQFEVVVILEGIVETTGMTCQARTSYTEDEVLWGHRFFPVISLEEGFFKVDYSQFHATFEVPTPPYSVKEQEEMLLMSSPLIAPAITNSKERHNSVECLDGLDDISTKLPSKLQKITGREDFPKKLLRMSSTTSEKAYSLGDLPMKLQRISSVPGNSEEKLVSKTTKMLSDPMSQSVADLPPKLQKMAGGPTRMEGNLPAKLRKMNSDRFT
T1 sequence (P48542 1-425): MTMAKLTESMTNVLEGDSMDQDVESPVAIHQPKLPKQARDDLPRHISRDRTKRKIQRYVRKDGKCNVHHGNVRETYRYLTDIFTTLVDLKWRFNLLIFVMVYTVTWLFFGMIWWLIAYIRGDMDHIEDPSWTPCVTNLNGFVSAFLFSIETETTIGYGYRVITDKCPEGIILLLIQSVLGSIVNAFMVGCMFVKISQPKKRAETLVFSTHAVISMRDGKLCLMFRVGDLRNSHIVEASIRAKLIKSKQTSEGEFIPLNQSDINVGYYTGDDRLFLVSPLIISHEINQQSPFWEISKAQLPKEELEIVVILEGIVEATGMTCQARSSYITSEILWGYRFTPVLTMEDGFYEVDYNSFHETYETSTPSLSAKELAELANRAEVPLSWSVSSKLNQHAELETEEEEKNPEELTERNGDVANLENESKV
In words: Inhibition of total GIRK currents (GTPγS-induced and basal) in GTPγS-injected oocytes. The class given is cell-based. As to conditions: injection of 13.8 nl of 100 mM into oocyte. The source says:
Microelectrodes were filled with 3 M KCl. […] GIRK channels are activated by various Gi/o-protein-coupled receptors through the direct action of G-protein βγ subunits released from the heterotrimeric G-protein complex, [33].

The target of data set [3] is T2, GIRK1/2 channels (Mus musculus, UniProt P48542+P63250).
T2 construct: expressed in transfected cells; host or cells: Xenopus laevis oocytes injected with in vitro transcribed mRNA
T2 sequence (P63250 1-501): T1 sequence (P63250 1-501)
T2 sequence (P48542 1-425): T1 sequence (P48542 1-425)
Kind of data set: Inhibition of basal GIRK currents, Xenopus oocyte expression assay, two-electrode voltage clamp. The class given is cell-based. As to conditions: for inhibition at 100 µM: read-out: % inhibition of basal GIRK currents. The procedure: (§1) Microelectrodes were filled with 3 M KCl. […] The data are expressed as mean ± SEM, and n is the number of oocytes tested. The statistical analysis of differences between groups was performed using paired t-test, one-way analysis of variance (ANOVA), or two-way ANOVA followed by the Tukey-Kramer post hoc test. Values of P<0.05 were considered statistically significant.
Background: In two-electrode clamp one electrode senses voltage and the other passes current.

Data set [4] deals with T3, GIRK1/4 channels (Mus musculus, UniProt P48545+P63250).
T3 construct: expressed in transfected cells; host or cells: Xenopus laevis oocytes injected with in vitro transcribed mRNA
T3 sequence (P63250 1-501): T1 sequence (P63250 1-501)
T3 sequence (P48545 1-419): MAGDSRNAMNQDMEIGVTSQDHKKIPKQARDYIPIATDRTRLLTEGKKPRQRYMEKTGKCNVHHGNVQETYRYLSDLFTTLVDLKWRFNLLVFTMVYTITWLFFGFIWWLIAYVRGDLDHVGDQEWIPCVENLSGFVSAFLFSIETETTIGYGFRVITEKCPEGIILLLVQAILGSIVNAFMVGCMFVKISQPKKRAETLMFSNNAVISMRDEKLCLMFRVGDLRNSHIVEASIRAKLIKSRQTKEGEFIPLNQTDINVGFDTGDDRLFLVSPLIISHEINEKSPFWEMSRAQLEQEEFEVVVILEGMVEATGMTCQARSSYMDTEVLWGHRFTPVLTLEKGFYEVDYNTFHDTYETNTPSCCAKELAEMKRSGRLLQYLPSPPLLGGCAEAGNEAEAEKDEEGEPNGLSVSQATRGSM
The data set is described as above. As to conditions: for inhibition at 100 µM: read-out: % inhibition of basal GIRK currents. The class given is cell-based. As for the experimental part: as §1

Data set [5] can be described thus: pKa of secondary amine group and protonation. The class given is physicochemical. The note with it: pH 7.4.
The conditions of data set [6]: cited from earlier work.
The conditions of data set [7]: cited from earlier work. The source holds these as a separate data set.
For data set [8] the following is noted: ref Data Sheets of Pfizer and Eli Lilly and Company; cited from earlier work.
Data set [9] addresses GIRK1/2 channels activated by ethanol (Mus musculus, UniProt P48542+P63250). The note with it: 100 mM.
Description: These plasmids were linearized by digestion with the appropriate enzymes as described previously [45], [46]. The specific mRNAs were synthesized in vitro using the mMESSAGE mMACHINE™ In Vitro Transcription Kit (Ambion, Austin, TX, USA).
Data set [10] has as its system GIRK channels. The note with it: cited from earlier work.
Data set [11] deals with T4, Kir2.1 channels.
T4 construct: expressed in transfected cells; host or cells: Xenopus laevis oocytes injected with in vitro transcribed mRNA
In words: Effect on Kir2.1 currents, Xenopus oocyte expression assay. The class given is cell-based, mouse. The note with it: 300 µM, hK solution. As for the experimental part:
Microelectrodes were filled with 3 M KCl. […]. The data are expressed as mean ± SEM, and n is the number of oocytes tested. The statistical analysis of differences between groups was performed using paired t-test, one-way analysis of variance (ANOVA), or two-way ANOVA followed by the Tukey-Kramer post hoc test. Values of P<0.05 were considered statistically significant.

[12] abbreviates: basal GIRK currents, −70 mV, hK solution 96 mM K+.
Setting [13] is: concentration reducing basal GIRK currents by 25%.
The mark [14] stands for this setting: concentration reducing basal GIRK currents by 50%.
Setting [15] is: read-out: % max (percentage inhibition of basal GIRK currents at the highest concentration tested).
The mark [16] stands for this setting: 100 µM, K4 solution 4 mM K+, −10 mV.

Structures can show the parent of a compound that is named as a salt. Where two headings read alike, the source gives them in different places. Bounds are passed on as bounds.

On to `[Ba+2]` [Ba^2+], for which the current response in [1] (3 mM, K4 solution 4 mM K+, −10 mV) is 7.6±1.3 nA; in data set [1] (3 mM, hK solution, −70 mV), 3.1±1.7 nA. The “current response in GTPγS-injected uninjected oocytes” value in data set [1] (3 mM, after GTPγS injection) was 3.9±2.1 nA.

Turning to `Nc1nc2c(ncn2[C@@H]2O[C@H](COP(=O)([O-])OP(=O)([O-])OP([O-])([O-])=S)[C@@H](O)[C@H]2O)c(=O)[nH]1.[Li+].[Li+].[Li+].[Li+]` [GTPγS, Li4-guanosine-5′-O-(3-thiotriphosphate)], the “increase of inward currents, steady-state level” value in [2] worked out at 516.0±123.7 nA.

With `CNCC[C@H](Oc1cccc2ccccc12)c1cccs1` [duloxetine, duloxetine hydrochloride], the “effect on outward GIRK currents” value in [3] (30 µM, K4 solution 4 mM K+, holding potential −10 mV) is “reversibly reduced”. Besides, the “voltage dependence of GIRK current inhibition at the end of the voltage pulses” value in data set [3] (30 µM, −120 to −40 mV) is “voltage-dependent”. In addition, the entries for the “n H (Hill coefficient)” value in [3] (basal GIRK currents) and in [4] (basal GIRK currents) were 0.94±0.06 and 0.97±0.07, respectively. Besides, the EC50 was found to be 14.9 ± 0.4 µM in [3] (setting [12]) and 17 ± 1.3 µM in data set [4] (setting [12]). In addition, the 25% effect concentration (IC25) was found to be 6.6 ± 0.6 µM in data set [3] (setting [13]) and 12.6 ± 1.2 µM in data set [4] (setting [13]). Moreover, the figures for the IC50 in data set [3] (setting [14]) and in [4] (setting [14]) were 28.3 ± 2.5 µM and 124 ± 34.3 µM, respectively. Moreover, the “effect of extracellular pH on percentage inhibition of GIRK channels” value in data set [3] (extracellular pH 7.4 and 9.0) is listed as “not significantly affected”. The figures for the inhibition at 100 µM in [3] and in data set [4] were 65.6 ± 1% and 49.7 ± 2.2%, respectively. The results for the inhibition at 300 µM in data set [3] (setting [15]) and in data set [4] (setting [15]) were 72.2 ± 1.1% and 54.1 ± 1.5%, respectively. Further, the current response in data set [1] (setting [16]) is recorded as 0±0 nA. The protonated form in [5] is listed as approximately 98.9%. The “concentrations in cases of overdose” value in data set [6] is recorded as not above 8.4 µM. Also, the “brain levels compared with blood levels” value in [7] is listed as 15 fold. Also, in [8], the “pKa of secondary amine group” value is on record as 9.34.

Consider `CCO` [ethanol, Ethanol], for which the “induced GIRK currents” value in [9] stood at 344.2±40.3 nA.

Turning to `CN1CCN2c3ccccc3Cc3ccccc3C2C1` (stereo not drawn) [mianserin, mianserin hydrochloride], the inhibition at 100 µM was 24.1 ± 5.5% in [3] (100 µM, −70 mV, hK solution) and 18.8 ± 1.3% in [4] (100 µM, −70 mV, hK solution). Besides, the “concentrations in cases of overdose” value in [6] is reported as not above 18.9 µM. The “brain levels compared with blood levels” value in [7] is given as 12.1 fold.

Turning to `CCN(CC)C(=O)C1(c2ccccc2)CC1CN` (stereo not drawn) [milnacipran], the “effects on GIRK channels” value in [10] was “little effects”.

On to `CN1CCN2c3ncccc3Cc3ccccc3C2C1` (stereo not drawn) [mirtazapine, Mirtazapine], for which the inhibition at 100 µM in [3] (100 µM, −70 mV, hK solution) was found to be 17.6 ± 3.5%; in data set [4] (100 µM, −70 mV, hK solution) it was 12.1 ± 2.4%. Moreover, the “brain levels compared with blood levels” value in data set [7] is 3.2 fold.

Consider `CCc1nn(CCCN2CCN(c3cccc(Cl)c3)CC2)c(=O)n1CCOc1ccccc1` [nefazodone, nefazodone hydrochloride], for which the inhibition at 100 µM in data set [3] (100 µM, −70 mV, hK solution) is 35.9 ± 3.5%; in data set [4] (100 µM, −70 mV, hK solution), 30.3 ± 3.4%. Moreover, the “concentrations in cases of overdose” value in data set [6] is recorded as not above 11.7 µM.

Take `CN[C@H]1CC[C@@H](c2ccc(Cl)c(Cl)c2)c2ccccc21` [sertraline, Sertraline hydrochloride]: in data set [11], the “% change of the Ba2+-sensitive current components” value is “less than 2%”. Besides, the current response in [1] (setting [16]) is 3.0±0.9 nA; in [1] (300 µM, hK solution, −70 mV), 2.0±2.0 nA. In addition, the protonated form entry in data set [5] is “approximately 96.9%”. Besides, in data set [8], the “pKa of secondary amine group” value was 8.9.

Consider `COc1ccc(C(CN(C)C)C2(O)CCCCC2)cc1` (stereo not drawn) [venlafaxine, Venlafaxine hydrochloride], for which the inhibition at 100 µM in [3] turned out to be 19.4 ± 4.6%; in data set [4], 22.8 ± 3.2%. Moreover, the “concentrations in cases of overdose” value in data set [6] is on record as not above 302.8 µM. In data set [7], the “brain levels compared with blood levels” value is reported as 4.9 fold.
